One may read the melting point as the temperature, or range, at which the solid turns liquid.

Where only a bound is given, the exact number is not on record here.

`CCN(CC)Cc1ccc2[nH]c(C)c(C(=O)OCc3ccccc3)c2c1` had a melting point of 106 to 108 °C. The result for `Cc1ccc(N2C(=O)C(O)=C(C(=NOCC(=O)O)c3ccc(C(C)C)cc3)C2c2ccc(OC(F)(F)F)cc2)nn1` (stereo not given) reads 227 °C. `COc1cc(C)nc(NC(=O)NS(=O)(=O)c2c(C)nn(C)c2S(=O)(=O)N(C)C)n1` registered a melting point of 215 to 217 °C.

`Cc1c(OCC(F)(F)F)ccnc1CS(=O)c1nc2ccccc2n1S(=O)(=O)c1ccc2c(c1)OCCOCCOCCOCCO2` (stereo not given) gave a melting point of 76 to 80 °C.

Molecule `CCC(=O)N(C)C1CCN(Cc2cc3cccnc3n(-c3ccccc3F)c2=O)CC1` returned a melting point of 218 to 220 °C. The result for `N#Cc1cnn2c1N(C(=O)CN1CCN(C(=O)OCc3ccccc3)CC1)CC=C2c1cccc(C(F)(F)F)c1` reads 113 to 115 °C. `CS(=O)(=O)OCC1OC2CC(CC(OS(C)(=O)=O)C2)O1` (stereo not given) registered a melting point of 137 to 138 °C. As for `O=C(c1ccccc1)c1ccc(OCCO)cc1O`, the melting point fell in the range of 92 to 94 °C. `CC(C)[C@H](NC(=O)N(C)Cc1ccccn1)C(=O)N[C@@H](Cc1ccccc1)[C@@H](O)C[C@H](Cc1ccccc1)NC(=O)OC(C)(C)C` gave a melting point of 84 to 85 °C. Next, `CCc1nc2cc(C(=O)NC)c(Cl)cc2n1-c1ccc(CCNC(=O)NS(=O)(=O)c2ccc(C)cc2)cc1`: 122 to 135 °C; `Cn1nc(C(=O)O)c(=O)n(-c2ccccc2)c1=O`: 195 to 198 °C. The molecule `O=C(O)CCCCCCCn1c(Cc2ccccc2)nc(-c2ccccc2)c1-c1ccccc1` registered a melting point of 148 to 149 °C. `CN1CCN(c2cc3c(cc2F)c(=O)c(C(=O)O)c2ccccn23)CC1` came in with a melting point of 264 to 266 °C. The result for `O=C(Nc1cc(C(F)(F)F)cc(C(F)(F)F)c1)C1C(=O)C2CCC(CC2)C1=O` (stereo not given) reads 286 to 288 °C; that for `COc1ccc(COC(=O)N[C@@H](CC(N)=O)C(=O)N[C@@H](Cc2ccccc2)[C@H](O)C(=O)N2CCC[C@H]2C(=O)NC(C)(C)C)cc1`, 95 to 97 °C. As to `Cc1oc(-c2ccccc2)nc1CCOc1cc(CO)on1`, the melting point lay within 115 to 116 °C.

On to `COC(=O)c1[nH]c2c(C)ccc(C)c2c1C=NOCc1ccccc1`, for which the melting point fell in the range of 104 to 105 °C. The result for `OCc1cnc(-c2ccc(OC(F)(F)F)cc2)nc1` reads 84 to 85 °C; that for `COc1ccc(C(C)C)cc1-c1cc(-c2nnnn2CCc2ccccc2)c(OCc2ccccc2)cc1OCc1ccccc1`, 118 to 120 °C.

In turn, `CC(C#N)NNC(N)=O` (stereo not given) had a melting point of 125 to 128 °C. In turn, `NC1=Nc2ccccc2C2CCCC12F` (stereo not given) yielded a melting point of 174 to 176 °C. `c1ccc(CSc2cnccc2C2=NOCCO2)cc1`: the melting point was 110 to 112 °C. The result for `Cc1cc(C(=O)OC(C)(C)C)cc(C(=O)OC(C)(C)C)c1` reads 86.5 to 87.5 °C. `CCCCn1nc(C)c(CO)c1Cc1ccc(-c2ccccc2-c2nnn[nH]2)cc1` yielded a melting point of 120 to 126 °C. Next, `CCOC(=O)c1c(N2CCOCC2)c2cc(Cl)ccc2n(C)c1=O`: 167 to 169 °C.

Regarding `COC1(C(C)=O)CCC2C3CCC4=CC(=O)CCC4(C)C3CCC21C` (stereo not given), the melting point was 196 to 197 °C. Next, `Cc1cc(=O)oc2cc(S)ccc12`: 136 °C; `CSc1nc(N)ncc1S(=O)(=O)NC(=O)NC(C)C`: 190 to 192 °C.

On to `CCC1c2cccn2-c2ccc(F)cc2N1C(=O)c1cccc(OC)c1` (stereo not given), for which the melting point lay within 70 to 74 °C. Next, `CC(C)(C)OC(=O)C(Nc1ccccc1)C(=O)OC(C)(C)C`: 94 °C. Next, `CC(C)(C)OC(=O)C(O)c1ccc2c(c1)OC(c1ccccc1)(c1ccccc1)O2` (stereo not given): 153 to 154 °C; `O=c1[nH]c2cc(Cl)ccc2c(O)c1-c1cccc([N+](=O)[O-])c1`: 329 to 332 °C; `CCCCCN(Cc1ccc(-c2ccccc2S(=O)(=O)NC(=O)c2ccccc2Cl)cc1)C(=O)N(Cc1ccccc1)c1ccccc1`: above 60 °C. Next, `CCCCN=C(O)c1c(Sc2ccc([N+](=O)[O-])cc2)c(Sc2ccccc2)c(Sc2ccccc2)c(Sc2ccc([N+](=O)[O-])cc2)c1C(=O)O`: 175 to 177 °C; `C[C@H]1C(=O)CCN1c1ccc(C#N)c2ccccc12`: 113 to 114 °C. On to `CC(=O)N1CCc2ccc(NS(=O)(=O)c3ccccc3)cc2C1`, for which the melting point fell in the range of 180 to 182 °C.

On to `CC(=O)c1ccc(C(F)(F)C(F)(F)c2ccccc2)cc1`, for which the melting point fell in the range of 128 to 133 °C. Molecule `CC(C)(COCc1cccc(Oc2ccccc2)c1)c1ccc(O)c(Cl)c1` showed a melting point of 68 to 69 °C. The result for `Cc1cnc(NC(=O)c2cc(Oc3cnc(C(=O)N(C)C)cn3)cc(O[C@@H](C)COC(F)F)c2)cn1` reads 75 °C; that for `CCCN(CCC)Cc1cnc(-c2ncn3c2CN(C)C(=O)c2cc(F)ccc2-3)o1`, 123 to 125 °C; that for `Cc1nc(Nc2ccc(C(C)C)cc2Br)c([N+](=O)[O-])c(-c2ccccc2C(F)(F)F)n1`, 146 °C. In turn, `CNc1nc(-c2cncc(-c3ccccc3)c2)c2cc(OC)c(OC)cc2n1` displayed a melting point of 177 to 179 °C. Next, `CNC(=O)CCCSc1nccc(NC(N)=NCC(F)(F)F)n1`: 153 to 155 °C; `CCOC(=O)c1cnc2n(c1=O)-c1ccccc1N(C=O)C2`: 172 to 174 °C. Regarding `CCOC(=O)C(C)(C#N)c1cccc2c(-c3ccc(Cl)cc3)nccc12` (stereo not given), the melting point is 92 to 93.5 °C. In turn, `COc1cc(C)c(C(=O)c2c(C(F)(F)F)ccnc2Cl)c(OC)c1OC` came in with a melting point of 59 to 62 °C. Next, `O=C1c2c(-c3ccccc3)c3cc(Cl)ccc3n2CCN1CCN1CCCC1`: 134 to 136 °C. Molecule `Cc1cc2c(cc1C(=O)O)CCC(CCN1CCCC1)=C2` gave a melting point of 258 to 259 °C. `CN1C(=O)NC(=O)CC1c1ccccc1` (stereo not given) came in with a melting point of 155 to 156 °C. Next, `COc1ccc(Nc2nc(C=O)cs2)cc1`: 108 to 110 °C. The result for `COC(=O)CC1CCc2ccc(OCc3ccc(C#N)cc3)cc2C1` (stereo not given) reads 120 to 122 °C; that for `COC(=O)CCCc1cc2cc(Cl)ccc2n1S(=O)(=O)c1ccc2c(ccn2C(C)=O)c1`, 127 to 131 °C; that for `CC(Oc1ccc(C(=O)NCCN(O)C(N)=O)cc1)c1ccccc1` (stereo not given), 164 to 166 °C. The result for `CCOC(=O)c1cnc(-c2ccccc2)nc1Nc1ccccc1N` reads 154 to 156 °C; that for `O=C(O)C1CCCN1c1ncccc1[N+](=O)[O-]` (stereo not given), 137 to 139 °C; that for `COCCn1cc(C(=O)NCc2ccc(Cl)cc2)c(=O)c2cc(CO)sc21`, 193 °C. `CCCC(Cn1ncnc1S)c1ccc(Cl)cc1Cl` (stereo not given) had a melting point of 103 °C. `CC1=c2c(cc3c(c2C)-c2ccccc2N=3)N=C1c1nc(C)no1` showed a melting point of 248 to 249 °C. With `O=[N+]([O-])c1cccnc1N=C=S`, the melting point lay in the range of 115 to 118 °C. `OC1Cc2ccccc2C1N1CCCCC1` (stereo not given) registered a melting point of 82 °C. As for `CCn1nc(Cc2ccc([N+](=O)[O-])cc2)oc1=O`, the melting point lay in the range of 108 to 109 °C. Next, `COC(=O)c1ccc(-c2n[nH]c(C)n2)cc1Cl`: 196 to 198 °C; `Cc1oc(-c2ccccc2)nc1COc1ccc(Cn2cc(CCC(=O)O)c(C(C)C)n2)cc1`: 97 to 98 °C; `Cc1cc(Oc2ccc([N+](=O)[O-])c(C)c2)n[nH]1`: 114 to 117 °C. The result for `O=C1[C@@H]2[C@H](O)CCN2C(=O)N1c1ccc(Br)c2ccccc12` (relative stereo) reads 204 to 206 °C; that for `NS(=O)(=O)c1nnc(NC(=O)CNC(=O)OCc2ccccc2)s1`, 199 to 201 °C. The result for `COc1ccc(Cn2ncc3c4c(cnc32)CN(S(=O)(=O)c2ccccc2)CC4)cc1` reads 136 to 138 °C.

`N=C(N)c1cccc(CN(C(=O)Nc2ccc(-c3ccccc3S(N)(=O)=O)cc2)c2ccccc2)c1`: the melting point is 201 to 202 °C.

`O=C(CC1CCc2ccccc2C1=O)c1ccccc1` (stereo not given) gave a melting point of 73 to 76 °C.

The molecule `COc1cc(Cc2cnc(NC(=O)Cc3ccccc3)nc2N)cc(OC)c1OC` showed a melting point of 181 to 183 °C. Molecule `COc1ccc(-n2nc(C(F)F)cc2-c2ccc(S(C)=O)cc2)cc1` (stereo not given) gave a melting point of 123 to 124 °C. Next, `C[C@H](N)C(=O)NC1N=C(C2CCCCC2)c2ccccc2N(C)C1=O` (stereo not given in full): 205 to 206 °C; `COc1cc(OC)nc(-c2c(C)[nH]c3ccc(Cl)cc23)n1`: 179 to 181 °C; `CC(C)Oc1cc(-n2c(=O)cc(C(F)(F)F)n(C)c2=O)c(F)cc1Br`: 79 °C. In turn, `CC(=O)SCC(Cc1noc2ccccc12)C(=O)Nc1cccc(C(=O)O)c1` (stereo not given) came in with a melting point of 185 to 187 °C.

For `Cc1ccccc1-c1c(C(=O)NCc2cc(C(F)(F)F)cc(C(F)(F)F)c2)n(C)c(=O)c2ccccc12`, the melting point fell in the range of 168 to 170 °C. Turning to `CCCc1c(OCCCOc2ccc3c(c2CCC)OC(CCC(=O)O)(C(=O)O)CC3=O)ccc(C(C)=O)c1O` (stereo not given), the melting point fell in the range of 76 to 79 °C. Next, `Clc1ccc(CN2C(=NCCCn3ccnc3)c3cccc4cccc2c34)cc1`: 90 to 91 °C; `Cc1c(C)n(-c2ccccc2)c2ncn(C)c(=O)c12`: 207 to 208 °C; `O=C1CCC(c2ccc(N3C(=O)c4ccccc4C3=O)cc2)CC1`: 150 to 152 °C. In turn, `Nc1c(-c2ccccc2)nn2ccccc12` displayed a melting point of 155 to 157 °C. The molecule `COc1cc(Nc2nccc(-c3cccc(NC(C)=O)c3)n2)cc(OC)c1OC` returned a melting point of 162 to 164 °C. Next, `O=C(Nc1nc(-c2ccccc2)cs1)c1ccccc1C(c1ccc(O)cc1)c1ccc(O)cc1`: 291 to 292 °C.

In turn, `COC(=O)c1cc([N+](=O)[O-])c(O)c([N+](=O)[O-])c1` came in with a melting point of 110 to 115 °C.

`CS(=O)(=O)OCCn1c2ccc(O)cc2c2c3c(c(-c4c(Cl)cccc4Cl)cc21)C(=O)NC3=O` showed a melting point of 255 to 260 °C.
